Patent US8067445B2, “N,N-disubstituted aminoalkylbiphenyl antagonists of prostaglandin D2 receptors” (Panmira Pharmaceuticals, LLC, priority 2008, dated 2011)

Legend:
human DP2 receptor = target: T1, human DP2 receptor (Homo sapiens, UniProt Q9Y5Y4); assay: DP2/CRTH2 radioligand binding assay ([3H]PGD2); conditions: [3H]PGD2 binding, membranes of HEK293 cells expressing human DP2; read-out: hDP2
T1 construct: expressed in transfected cells
T1 sequence (Q9Y5Y4 1-395): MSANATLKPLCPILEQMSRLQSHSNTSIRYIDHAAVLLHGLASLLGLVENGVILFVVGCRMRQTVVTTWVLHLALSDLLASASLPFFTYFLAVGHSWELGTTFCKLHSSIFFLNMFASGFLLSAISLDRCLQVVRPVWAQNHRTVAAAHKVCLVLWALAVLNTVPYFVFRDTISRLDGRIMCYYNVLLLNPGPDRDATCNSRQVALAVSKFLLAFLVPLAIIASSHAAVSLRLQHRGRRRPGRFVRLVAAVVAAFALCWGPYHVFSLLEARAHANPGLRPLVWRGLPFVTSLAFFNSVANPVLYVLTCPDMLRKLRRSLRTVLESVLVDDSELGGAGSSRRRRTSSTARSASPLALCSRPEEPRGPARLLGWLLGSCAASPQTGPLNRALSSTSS
Outline: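 Membranes from HEK293 cells stably expressing recombinant human DP2 incubated 60 min at room temperature with 1 nM [3H]PGD2 and compound in pH 7.4 Hepes/MnCl2/EDTA buffer, ± 0.2% human serum albumin. Bound radioactivity measured after filtration; non-specific binding defined with 10 μM PGD2. IC50 from titration curves.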

[1] = target: T2, recombinant human CRTH2 receptor (Homo sapiens, UniProt Q9Y5Y4); assay: GTPγS binding assay; assay type: biochemical; conditions: +HSA (0.2% human serum albumin), 80 nM PGD2, CHO cell membranes; read-out: hDP2 GTPγS μM (+HSA)
T2 construct: expressed in transfected cells
T2 sequence (Q9Y5Y4 1-395): T1 sequence (Q9Y5Y4 1-395)
Description: The ability of a compound to inhibit binding of GTP to DP2 is assessed via a membrane GTPγS assay. CHO cells stably expressing the recombinant human CRTH2 receptor are resuspended in 10 mM Hepes, 7.4 containing 1 mM DTT, lysed and centrifuged at 75,000×g to pellet the membranes. The membranes are resuspended in 10 mM Hepes, 7.4 containing 1 mM DTT and 10% glycerol. […] The reactions are terminated by rapid filtration through Whatman GF/B glass fibre filter plates. The filter plates are washed 3 times with 1 ml cold Assay Buffer and dried. Scintillant is then added to the plates and the radioactivity retained on the filters is determined on a Packard TopCount (Perkin Elmer). Specific binding is determined as total radioactive binding minus non-specific binding in the absence of the ligand (80 nM PGD2). IC50s were determined using Graphpad prism analysis of drug titration curves.

human DP1 receptor = target: T3, human DP1 receptor (Homo sapiens, UniProt Q13258); assay: DP1 radioligand binding assay ([3H]BWA868C, platelet membranes); conditions: [3H]BWA868C binding, human platelet membranes; read-out: hDP1
T3 construct: tissue Biological Specialty Corporation; host or cells: human platelet membranes
T3 sequence (Q13258 1-359): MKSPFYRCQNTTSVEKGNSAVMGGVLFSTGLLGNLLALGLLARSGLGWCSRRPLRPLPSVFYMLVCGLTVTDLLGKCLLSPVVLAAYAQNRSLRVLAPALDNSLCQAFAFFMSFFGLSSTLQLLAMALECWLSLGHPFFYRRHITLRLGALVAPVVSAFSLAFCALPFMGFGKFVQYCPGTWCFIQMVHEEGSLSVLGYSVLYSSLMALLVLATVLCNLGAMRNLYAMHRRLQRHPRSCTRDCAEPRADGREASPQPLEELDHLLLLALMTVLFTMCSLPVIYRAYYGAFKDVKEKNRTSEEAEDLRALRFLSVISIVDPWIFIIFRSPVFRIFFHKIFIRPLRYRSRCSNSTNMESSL
Outline: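 Human platelet membranes (20 μg protein/well) incubated 60 min at room temperature with 2 nM [3H]BWA868C and compound in 50 mM Hepes, 10 mM MnCl2, 1 mM EDTA, pH 7.4, ± 0.2% human serum albumin. Bound radioactivity measured after filtration; nonspecific binding defined with 10 μM BWA868C; IC50 from titration curves.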

SMILES	IC50 (human DP2 receptor) [nM]	IC50 [1] [µM]	IC50 (human DP1 receptor) [nM]
CCN(Cc1cc(C(F)(F)F)ccc1-c1cc(Cl)cc(CC(=O)O)c1)C(=O)OCc1ccccc1 [Compound 1-108, {2′-[(Benzyloxycarbonyl-ethyl-amino)-methyl]-5-chloro-4′-trifluoromethyl-biphenyl-3-yl}-acetic acid]	< 300	< 0.3	1000 to 30000
COc1ccc(CC(=O)O)cc1-c1ccc(C(F)(F)F)cc1CN(CC(=O)O)C(C)=O [Compound 1-8, {2′-[(Acetyl-carboxymethyl-amino)-methyl]-6-methoxy-4′-trifluoromethyl-biphenyl-3-yl}-acetic acid]	1000 to 30000	1 to 30	1000 to 30000
CCN(Cc1cc(C(F)(F)F)ccc1-c1cc(CC(=O)O)ccc1OC)S(=O)(=O)c1ccc(Cl)cc1 [Compound 1-100, (2′-{[(4-Chloro-benzenesulfonyl)-ethyl-amino]-methyl}-6-methoxy-4′-trifluoromethyl-biphenyl-3-yl)-acetic acid]	< 300	1 to 30	1000 to 30000
CCN(Cc1cc(C(F)(F)F)ccc1-c1cc(CC(=O)O)ccc1OC)C(=O)C[S+]([O-])c1ccccc1 (stereo not shown) [Compound 1-119, (2′-{[(2-Benzenesulfinyl-acetyl)-ethyl-amino]-methyl}-6-methoxy-4′-trifluoromethyl-biphenyl-3-yl)-acetic acid]	< 300	< 0.3	1000 to 30000
CCN(Cc1cc(C(F)(F)F)ccc1-c1cc(CC(=O)O)ccc1OC)C(=O)N1CCCC1 [Compound 1-97, (2′-{[Ethyl-(pyrrolidine-1-carbonyl)-amino]-methyl}-6-methoxy-4′-trifluoromethyl-biphenyl-3-yl)-acetic acid]	< 300	< 0.3	1000 to 30000
CCN(Cc1cc(C(F)(F)F)ccc1-c1cc(CC(=O)O)cc(C(F)(F)F)c1)C(=O)C1CC1 [Compound 1-136, {2′-[(Cyclopropanecarbonyl-ethyl-amino)-methyl]-5,4′-bis-trifluoromethyl-biphenyl-3-yl}-acetic acid]	< 300	< 0.3	1000 to 30000
CCN(Cc1cc(C(F)(F)F)ccc1-c1cc(CC(=O)O)ccc1OCc1ccccc1)C(=O)OCc1ccccc1 [Compound 1-128, {6-Benzyloxy-2′-[(benzyloxycarbonyl-ethyl-amino)-methyl]-4′-trifluoromethyl-biphenyl-3-yl}-acetic acid]	< 300	< 0.3	300 to 1000
CCN(Cc1cc(C(F)(F)F)ccc1-c1cc(CC(=O)O)ccc1OC)C(=O)CS(=O)(=O)c1ccccc1 [Compound 1-120, (2′-{[(2-Benzenesulfonyl-acetyl)-ethyl-amino]-methyl}-6-methoxy-4′-trifluoromethyl-biphenyl-3-yl)-acetic acid]	< 300	< 0.3	1000 to 30000
CCN(Cc1cc(C(F)(F)F)ccc1-c1cc(C(C)C(=O)O)ccc1OC)C(C)=O (stereo not shown) [Compound 1-21, 2-{2′-[(Acetyl-ethyl-amino)-methyl]-6-methoxy-4′-trifluoromethyl-biphenyl-3-yl}-propionic acid]	< 300	< 0.3	1000 to 30000
CCN(Cc1cc(C(F)(F)F)ccc1-c1cc(C(C)C(=O)O)ccc1OC)C(=O)OCc1ccccc1 (stereo not shown) [Compound 1-98, 2-{2′-[(Benzyloxycarbonyl-ethyl-amino)-methyl]-6-methoxy-4′-trifluoromethyl-biphenyl-3-yl}-propionic acid]	< 300	< 0.3	1000 to 30000
COC(=O)N(Cc1ccccc1)Cc1cc(C(F)(F)F)ccc1-c1cc(CC(=O)O)ccc1OC [Compound 1-24, {2′-[(Benzyl-methoxycarbonyl-amino)-methyl]-6-methoxy-4′-trifluoromethyl-biphenyl-3-yl}-acetic acid]	< 300	< 0.3	1000 to 30000
CCOc1ccc(-c2ccc(-c3cc(CC(=O)O)ccc3OC)c(CN(CC)C(=O)C3CC3)c2)cn1 [Compound 1-227, [2′-[(Cyclopropanecarbonyl-ethyl-amino)-methyl]-4′-(6-ethoxy-pyridin-3-yl)-6-methoxy-biphenyl-3-yl]-acetic acid]	< 300	< 0.3	1000 to 30000
CCN(Cc1cc(C(F)(F)F)ccc1-c1cc(CC(=O)O)ccc1OC)/C(=N/C#N)NCC1CCCCC1 [Compound 1-112, [2′-(N′-Cyano-N″-cyclohexylmethyl-N-ethyl-guanidinomethyl)-6-methoxy-4′-trifluoromethyl-biphenyl-3-yl]-acetic acid]	< 300	< 0.3	1000 to 30000
COc1ccc(CC(=O)O)cc1-c1ccc(C(F)(F)F)cc1CN(C(C)=O)[C@H]1CCc2ccccc21 [Compound 1-14, {2′-[((S)-Acetyl-indan-1-yl-amino)-methyl]-6-methoxy-4′-trifluoromethyl-biphenyl-3-yl}-acetic acid]	< 300	< 0.3	1000 to 30000
COc1ccc(CC(=O)O)cc1-c1ccc(C(F)(F)F)cc1CN(CC(C)(C)C)C(C)=O [Compound 1-3, (2′-{[Acetyl-(2,2-dimethyl-propyl)-amino]-methyl}-6-methoxy-4′-trifluoromethyl-biphenyl-3-yl)-acetic acid]	< 300	< 0.3	1000 to 30000
CCN(Cc1cc(C(F)(F)F)ccc1-c1cc(CC(=O)O)ccc1OC)C(=O)Nc1ccccc1Br [Compound 1-47, {2′-[3-(2-Bromo-phenyl)-1-ethyl-ureidomethyl]-6-methoxy-4′-trifluoromethyl-biphenyl-3-yl}-acetic acid]	< 300	< 0.3	1000 to 30000
CCN(Cc1cc(C(F)(F)F)ccc1-c1cc(CC(=O)O)ccc1OC)C(=O)C1(c2ccc(Cl)cc2Cl)CC1 [Compound 1-131, [2′-({[1-(2,4-Dichloro-phenyl)-cyclopropanecarbonyl]-ethyl-amino}-methyl)-6-methoxy-4′-trifluoromethyl-biphenyl-3-yl]-acetic acid]	< 300	< 0.3	1000 to 30000
COc1ccc(CC(=O)O)cc1-c1ccc(C(F)(F)F)cc1CN(C(C)=O)c1ccccc1 [Compound 1-18, {2′-[(Acetyl-phenyl-amino)-methyl]-6-methoxy-4′-trifluoromethyl-biphenyl-3-yl}-acetic acid]	300 to 1000	0.3 to 1	1000 to 30000
COC(=O)N(Cc1cc(C(F)(F)F)ccc1-c1cc(CC(=O)O)ccc1OC)C1Cc2ccccc2C1 [Compound 1-26, {2′-[(Indan-2-yl-methoxycarbonyl-amino)-methyl]-6-methoxy-4′-trifluoromethyl-biphenyl-3-yl}-acetic acid]	< 300	< 0.3	1000 to 30000
CCN(Cc1cc(C(F)(F)F)ccc1-c1cc(CC(=O)O)ccc1OC)/C(=N/C#N)NCC(C)(C)C [Compound 1-113, {2′-[N′-Cyano-N″-(2,2-dimethyl-propyl)-N-ethyl-guanidinomethyl]-6-methoxy-4′-trifluoromethyl-biphenyl-3-yl}-acetic acid]	< 300	< 0.3	1000 to 30000
CCN(Cc1cc(C(F)(F)F)ccc1-c1cc(C(C)C(=O)O)ccc1OC)C(=O)NCc1ccccc1 (stereo not shown) [Compound 1-222, 2-[2′-(3-Benzyl-1-ethyl-ureidomethyl)-6-methoxy-4′-trifluoromethyl-biphenyl-3-yl]-propionic acid]	< 300	< 0.3	
CCN(Cc1cc(-c2cnn(C)c2)ccc1-c1cc(CC(=O)O)ccc1OC)C(=O)NCc1ccccc1 [Compound 1-234, [2′-(3-Benzyl-1-ethyl-ureidomethyl)-6-methoxy-4′-(1-methyl-1H-pyrazol-4-yl)-biphenyl-3-yl]-acetic acid]	< 300	< 0.3	
